Measured values from paper PMC3648344 (BMC Structural Biology, 2013).

Biological target: T1, ecMnmC (Escherichia coli, UniProt P77182)
T1 construct: gene mnmC; full-length bifunctional MnmC, 668 residues, ~75 kDa monomer; N-terminal His6 tag removed with thrombin; pET30a-LIC, expressed in E. coli BL21(DE3)
T1 sequence (P77182 1-668): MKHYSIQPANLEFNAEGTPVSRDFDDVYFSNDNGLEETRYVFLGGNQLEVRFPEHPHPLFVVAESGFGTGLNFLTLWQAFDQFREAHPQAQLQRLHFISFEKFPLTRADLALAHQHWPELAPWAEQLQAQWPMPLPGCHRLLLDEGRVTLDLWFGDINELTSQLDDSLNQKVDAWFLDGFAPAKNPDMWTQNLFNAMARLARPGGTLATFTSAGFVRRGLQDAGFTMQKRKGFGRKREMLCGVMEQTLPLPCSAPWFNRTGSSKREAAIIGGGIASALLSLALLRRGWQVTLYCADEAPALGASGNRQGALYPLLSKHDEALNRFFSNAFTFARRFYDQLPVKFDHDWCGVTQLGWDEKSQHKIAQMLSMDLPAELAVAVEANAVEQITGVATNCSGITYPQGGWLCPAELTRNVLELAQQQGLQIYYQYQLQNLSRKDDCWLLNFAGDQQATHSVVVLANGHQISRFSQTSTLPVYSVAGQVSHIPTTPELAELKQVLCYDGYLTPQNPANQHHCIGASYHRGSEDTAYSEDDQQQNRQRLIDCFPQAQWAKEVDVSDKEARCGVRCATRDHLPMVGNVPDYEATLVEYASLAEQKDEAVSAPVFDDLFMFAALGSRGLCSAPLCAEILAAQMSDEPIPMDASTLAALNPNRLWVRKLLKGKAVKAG
Test: X-ray crystal structure, […] Å
Format: binding

With `C[S+](CC[C@H](N)C(=O)O)C[C@H]1O[C@@H](n2cnc3c(N)ncnc32)[C@H](O)[C@@H]1O` (some centres unmarked) [SAM] the “X-ray crystal structure, 2.55 Å” value (crystals soaked with 5 mM SAM, FAD bound, MnmC2 domain site) was “Our structures show that ecMnmC and ypMnmC bind SAM in an almost identical manner”.
In the case of `Cc1cc2nc3c(=O)[nH]c(=O)nc-3n(C[C@H](O)[C@H](O)[C@H](O)COP(=O)(O)OP(=O)(O)OC[C@H]3O[C@@H](n4cnc5c(N)ncnc54)[C@H](O)[C@@H]3O)c2cc1C` [FAD], the “X-ray crystal structure, 2.55 Å” value (co-purified FAD, none added, SAM bound, MnmC1 domain site) is reported as “All three MnmC structures unambiguously exhibited bound FAD (Figure 4A)”.
